The test system of test [1] is mouse melanoma cells (YUMM1.7). In words: Cell proliferation of mouse melanoma cells (YUMM1.7). It is filed as cell-based.
The subject of a further test is p-ERK (MAPK activation). The test is described as follows: ERK phosphorylation / MAPK activation (Western blot). It is filed as cell-based, human.
Test [2] relates to human melanoma cells (WM46). In words: Cell proliferation of human melanoma cells (WM46). It is filed as cell-based. The note with it: for proliferation following addition of cations: WM46, over 6-days (FIG. 4D).
Another test deals with ZIP9. The note with it: competitive binding assays; cited from earlier work.
Another test deals with human WM46 melanoma. In words: WM46 melanoma tumor growth in SCID mice. It is filed as in vivo. To be noted: for effect on tumors with engineered ZIP9 loss: either male or female mice. From the text: The tumor-promoting effects of testosterone on early prostate cancer are known, and inhibition of testosterone signaling is a first-line treatment. […] Here it is shown that targeting nonclassical testosterone signaling through ZIP9 is therapeutically useful for cancer (FIG. 13).

In a further test the test system is melanoma cells. In words: Testosterone-induced hyperproliferation in melanoma cells (FIG. 10A). It is filed as cell-based. The note with it: 2 μM Bicalutamide (FIG. 10A).
For test [3], the system named is cell lines derived from diverse human and murine tumor types. The test is described as follows: Testosterone-induced hyperproliferation in a panel of tumor cell lines (FIG. 11). It is filed as cell-based.
Test [4] relates to human WM46 melanoma cells. In words: Cytosolic zinc influx with Fluo-Zin3 reporter. It is filed as cell-based.
Test [5] concerns primary human melanocytes. In words: Cell proliferation of primary human melanocytes. It is filed as cell-based. To be noted: androgen treatment (FIG. 3A).
For a further test, the system named is human PDAC. In words: Cell proliferation of human PDAC cells. It is filed as cell-based. To be noted: human PDAC (FIG. 9C).
The subject of another test is murine PDAC. In words: Cell proliferation of murine PDAC cells. It is filed as cell-based, mouse.
Test [6] has as its system WM46 human melanoma cells. The test is described as follows: Reverse Phase Protein Array of testosterone-treated melanoma cells. It is filed as cell-based. To be noted: RPPA, testosterone 0, 30, 60 minutes and 8 hours. From the text:
(§1) (For clarity, this figure highlights only a subset of proteins from the entire data set of 450 proteins at 4 time points). […] FIG. 12B is a Western blot showing that testosterone promotes YAP nuclear translocation in WM46 cells. […] is used as control for the cytosolic fraction; PARP is used as a control for the nuclear fraction.
Testosterone induces a rapid, ZIP9 dependent, increase in free cytosolic zinc that is required for the hyperproliferation. Zinc is required for myriad cellular enzymes and associated biologic process making it difficult to hypothesize a priori, what signaling mechanism(s) downstream of ZIP9 mediate the testosterone induced hyperproliferation. A 450 element Reverse Phase Protein Array analysis of human melanoma cells treated with testosterone for 0, 30 minutes, 60 minutes and 8 hours (FIG. 12A) was performed.

For a further test, the system named is YAP. The test is described as follows: YAP nuclear translocation (Western blot of fractions). It is filed as cell-based, human. To be noted: WM46, testosterone exposure (FIG. 12B).
Excerpt: as §1
When activated, YAP and the related transcription factor TAZ are dephosphorylated and move from the cytosol to the nucleus. […] YAP is a substrate for 14-3-3ε, which sequesters YAP in the cytosol. As 14-3-3ε, was one of the proteins most depleted by testosterone, it is believed, without being bound by theory, that 14-3-3ε loss promotes YAP translocation to the nucleus where it then induces expression of tumor-promoting genes. It is likely that the MAK/ERK changes also contribute to testosterone induced YAP activation, as MEK and ERK1/2 are also major positive YAP regulators.

Where [7] appears, read: male SCID mice, 20 mg/kg/day systemic daily (FIG. 13C).

Regarding `c1ccc(CN(CCN(Cc2ccccn2)Cc2ccccn2)Cc2ccccn2)nc1` [TPEN, N,N,N′,N′-tetrakis (2-pyridinylmethyl)-1,2-ethanediamine], the “effect on testosterone stimulated proliferation” value in test [1] (YUMM, zinc chelator plus testosterone (FIG. 7B)) is listed as “blocked”. The “effect on testosterone p-ERK induction” value with p-ERK (MAPK activation) (with testosterone (FIG. 10B)) is reported as “completely blocked”. In addition, in [2] (WM46, without testosterone (FIG. 4C)), the “effect on proliferation on its own” value is listed as “no significant effect”. Moreover, the “effect on testosterone induced proliferation” value in test [2] (WM46, zinc chelator plus testosterone, 6 days (FIG. 4C)) is “completely blocked”.
On to `C[C@]12CCC(=O)C[C@@H]1CC[C@@H]1[C@@H]2CC[C@]2(C)[C@@H](O)CC[C@@H]12` [dihydrotestosterone], for which the “ZIP9 binding specificity / affinity” value in the test on ZIP9 was “relatively low affinity”.
As for `[Fe]` [iron], in [2], the “proliferation following addition of cations” value was “Only zinc promoted proliferation”.
For the compound `CC(O)(CS(=O)(=O)c1ccc(F)cc1)C(=O)Nc1ccc(C#N)c(C(F)(F)F)c1` (stereo not shown) [bicalutamide], the “effect on tumors with engineered ZIP9 loss” value in the test on human WM46 melanoma is listed as “no significant effect”. Moreover, the tumor growth entry with human WM46 melanoma (female mice, 30 mg/kg/day via oral gavage (FIG. 13A)) is on record as “no effect”. In addition, in the test with melanoma cells, the “effect on cell proliferation in the absence of testosterone” value is reported as “no effect”. The “cell lines in which testosterone-induced hyperproliferation is blocked” value in [3] (FIG. 11) was 10/12.
Take `[Mn+2]` [manganese]: in [2], the “proliferation following addition of cations” value is recorded as “Only zinc promoted proliferation”.
On to `C[C@]12CCC(=O)C=C1CC[C@@H]1[C@@H]2CC[C@]2(C)C(=O)CC[C@@H]12` [androstenedione], for which, in the test on ZIP9, the “ZIP9 binding specificity / affinity” value is reported as “relatively low affinity”.
Regarding `[Zn+2]` [zinc], in test [2], the “proliferation following addition of cations” value is given as “promoted proliferation”.
Consider `C[C@]12CC[C@H]3[C@@H](CCC4=CC(=O)CC[C@@]43C)[C@@H]1CC[C@@H]2O` [testosterone], for which the “ZIP9 binding specificity / affinity” value with ZIP9 is recorded as “highly specific”. In test [4] (WM46, in the presence of the androgen (FIG. 4B)), the “duration of sustained elevation in free cytosolic zinc” value is listed as “at least 2 days”. Also, the zinc influx result in test [4] (WM46, over 5 minutes (FIG. 4A)) is listed as “rapid zinc influx”. Further, the “effect on zinc in cells lacking ZIP9” value in [4] (ΔZIP9 WM46 (FIG. 7C)) is recorded as “no significant effect”. Besides, the cellular proliferation result in test [1] (mouse melanoma cells, androgen treatment (FIG. 3A)) is on record as “markedly increased cellular proliferation”. Moreover, in test [1] (ΔZIP9 YUMM (FIG. 7B)), the “proliferation of isogenic clones lacking ZIP9” value was “no effect”. In addition, in [5], the cellular proliferation entry was “markedly increased cellular proliferation”. Further, the ERK phosphorylation result in the test with p-ERK (MAPK activation) (testosterone treatment (FIG. 3B)) is listed as “increases ERK phosphorylation”. The proliferation entry in the test on human PDAC is “promotes proliferation”. In addition, in test [2], the cellular proliferation result is “markedly increased cellular proliferation”, the “concentration of maximum proliferative response” value is reported as 75 nM and the “proliferation of isogenic clones lacking ZIP9” value was “no effect”. The “response of ΔZIP9 cells in vitro” value with murine PDAC (mPDAC ΔZIP9 (FIG. 9E)) was “do not respond”. The proliferation entry in the test on murine PDAC (murine PDAC (FIG. 9C)) is given as “promotes proliferation”. In test [6], the 14-3-3c protein expression entry is recorded as “downregulated”, the “CDKN2A (p16) protein expression” value is listed as “downregulated”, the YAP1 protein expression entry is “Upregulated” and the “phosphorylated ERK (T202; Y204) level” value was “Upregulated”. For the same compound, in the test on YAP, the “time to YAP movement from cytoplasm to nucleus” value was in the range of 30 to 60 min. In addition, the “proliferative response to testosterone” value in test [3] (MCF7 cells) was “did not respond”. In addition, the “proliferative response to testosterone” value in test [3] (U87 cells) is “did not respond”.
As to `CNC(=O)c1ccc(N2C(=S)N(c3cnc(C#N)c(C(F)(F)F)c3)C(=O)C23CCC3)cc1F` [apalutamide], the “effect on tumors with engineered ZIP9 loss” value with human WM46 melanoma is “no significant effect”. Moreover, the melanoma growth result with human WM46 melanoma (female mice, systemic delivery) was “no effect”. For the same compound, in the test on human WM46 melanoma (setting [7]), the survival result is reported as “extend survival” and the tumor growth entry is reported as “inhibits tumor growth”. Moreover, the “effect on testosterone driven increased proliferation” value in [2] (WM46 (FIG. 10E)) was “inhibit testosterone driven increased proliferation”. For the same compound, the “effect on testosterone dependent-increased proliferation” value in test [2] (WM46, treated with 204 Apalutamide (so in the source)) is “reverted”.

The record behind these values is US11992478B2, “Methods of using androgen receptor inhibitors as cancer therapeutics” (THE TRUSTEES OF THE UNIVERSITY OF PENNSYLVANIA, priority 2020, dated 2024).
